“And” between values parts separate entries of the source, which are not always exact repeats. Equal values may be shown once.
Experiments:
[1] = target: T1, Solute carrier organic anion transporter family member 1B1 (Homo sapiens, UniProt Q9Y6L6)
T1 sequence (Q9Y6L6 whole entry): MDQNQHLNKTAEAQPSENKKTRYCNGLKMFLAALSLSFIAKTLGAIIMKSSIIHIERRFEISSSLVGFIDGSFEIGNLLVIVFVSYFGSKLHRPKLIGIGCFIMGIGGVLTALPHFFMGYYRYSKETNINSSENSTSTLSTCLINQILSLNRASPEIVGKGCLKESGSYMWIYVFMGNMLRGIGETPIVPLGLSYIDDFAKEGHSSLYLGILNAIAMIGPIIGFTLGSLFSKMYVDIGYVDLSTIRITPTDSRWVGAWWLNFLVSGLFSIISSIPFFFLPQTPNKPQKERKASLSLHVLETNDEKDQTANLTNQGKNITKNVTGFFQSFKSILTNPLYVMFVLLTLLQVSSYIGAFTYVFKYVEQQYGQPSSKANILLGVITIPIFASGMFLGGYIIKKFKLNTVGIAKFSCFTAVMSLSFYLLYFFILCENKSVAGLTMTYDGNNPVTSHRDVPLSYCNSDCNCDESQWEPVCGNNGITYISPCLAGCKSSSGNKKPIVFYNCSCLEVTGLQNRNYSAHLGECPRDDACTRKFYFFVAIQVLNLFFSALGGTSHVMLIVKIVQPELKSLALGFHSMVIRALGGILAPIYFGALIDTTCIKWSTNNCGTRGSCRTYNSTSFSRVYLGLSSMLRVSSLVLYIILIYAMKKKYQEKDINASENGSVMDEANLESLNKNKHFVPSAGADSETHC

[2] = target: T1, Solute carrier organic anion transporter family member 1B1; remark: listed apart in the source
[3] = target: T2, Solute carrier organic anion transporter family member 1B3 (Homo sapiens, UniProt Q9NPD5)
T2 sequence (Q9NPD5 whole entry): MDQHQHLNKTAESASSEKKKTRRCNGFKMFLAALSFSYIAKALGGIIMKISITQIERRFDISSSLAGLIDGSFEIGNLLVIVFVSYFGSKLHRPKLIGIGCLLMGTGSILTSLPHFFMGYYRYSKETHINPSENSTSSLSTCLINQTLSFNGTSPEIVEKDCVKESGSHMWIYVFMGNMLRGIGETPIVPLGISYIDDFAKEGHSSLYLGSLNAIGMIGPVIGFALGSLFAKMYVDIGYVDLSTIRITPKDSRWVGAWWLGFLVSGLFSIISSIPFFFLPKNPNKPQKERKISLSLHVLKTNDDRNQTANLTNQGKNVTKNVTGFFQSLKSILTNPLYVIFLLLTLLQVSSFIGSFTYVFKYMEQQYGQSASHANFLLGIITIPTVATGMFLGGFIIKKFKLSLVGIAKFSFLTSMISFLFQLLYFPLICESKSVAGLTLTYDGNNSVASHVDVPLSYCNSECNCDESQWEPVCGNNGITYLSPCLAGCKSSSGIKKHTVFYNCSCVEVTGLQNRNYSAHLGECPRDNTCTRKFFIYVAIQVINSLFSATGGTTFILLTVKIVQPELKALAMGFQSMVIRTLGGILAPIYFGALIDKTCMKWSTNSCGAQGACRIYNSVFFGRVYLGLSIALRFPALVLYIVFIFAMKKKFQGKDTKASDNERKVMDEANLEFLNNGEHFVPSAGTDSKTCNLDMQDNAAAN

[4] = target: T2, Solute carrier organic anion transporter family member 1B3; remark: listed apart in the source
[5] = target: T1, Solute carrier organic anion transporter family member 1B1; conditions: chinese hamster, cho, 10 µM
[6] = target: T2, Solute carrier organic anion transporter family member 1B3; conditions: chinese hamster, cho, 10 µM

SMILES	IC50 [1]	Ki [2]	IC50 [3]	Ki [4]	residual activity [5]	residual activity [6]
CC1(C)CC[C@]2(C(=O)O)CC[C@]3(C)C(=CC[C@@H]4[C@@]5(C)CC[C@H](O)[C@@](C)(CO)[C@@H]5CC[C@]43C)[C@@H]2C1 [HEDERAGENIN]	3800 nM	2110 nM	891 nM	680 nM	40.18%	18.59%
O=C(O[C@@H]1Cc2c(O)cc(O)cc2O[C@@H]1c1cc(O)c(O)c(O)c1-c1c([C@H]2Oc3cc(O)cc(O)c3C[C@H]2O)cc(O)c(O)c1O)c1cc(O)c(O)c(O)c1 [2',2'-BISEPIGALLOCATECHIN MONOGALLATE]	3720 nM	2050 nM	8510 nM	6500 nM	31.07%	18.79%
CCC(C)C(=O)O[C@@H]1C[C@@]2(C)[C@H](c3ccoc3)OC(=O)CC23OC2(C)O[C@]14[C@]1(C)[C@@H](CC(=O)OC)C5(C)CC1(O)[C@](O)(C5OC(=O)C1(C)OC1C)[C@@H](OC(C)=O)[C@]34O2 (stereo not given in full) [UTILIN]	676 nM	380 nM	776 nM	600 nM	-3.778%	2.658%
CC1(C)[C@@H](O)C=C[C@]2(C)[C@H]3CC[C@@]4(C)[C@H](c5ccoc5)OC(=O)[C@H]5O[C@]54[C@]3(C)C(=O)C[C@@H]12	2400 nM	1330 nM	5010 nM	3810 nM	10.83%	22.22%
Cc1cc2c(C(C)C)c(O)c(O)c(C=O)c2c(O)c1-c1c(C)cc2c(C(C)C)c(O)c(O)c(C=O)c2c1O [GOSSYPOL]	3240 nM	1780 nM	4570 nM	3470 nM	24.45% and 68.48%	
CC(C)=CCCC1(C)C=Cc2c(O)c3c(c(CC=C(C)C)c2O1)OC12C(=CCCC1C(C)(C)O[C@@]2(C/C=C(\C)C(=O)O)C(=O)O)C3=O (stereo not given in full) [GARCINOLIC ACID]	1170 nM	650 nM	2240 nM	1730 nM	30.6%	3.626%
CC(=O)O[C@H]1CC[C@]2(C)[C@H]3C(=O)C=C4[C@@H]5[C@@H](C)[C@H](C)CC[C@]5(C(=O)O)CC[C@@]4(C)[C@]3(C)CC[C@H]2C1(C)C [11-OXOURSOLIC ACID ACETATE]	11200 nM		11500 nM		19.79%	5.189%
CC[C@@H](C(=O)[C@@H](C)[C@@H](O)[C@H](C)[C@@H]1O[C@@H]([C@@H](CC)C(=O)[O-])CC[C@@H]1C)[C@H]1O[C@]2(C=C[C@@H](O)[C@]3(CC[C@@](C)([C@H]4CC[C@](O)(CC)[C@H](C)O4)O3)O2)[C@H](C)C[C@@H]1C.[Na+] [SALINOMYCIN SODIUM]		2030 nM		3310 nM	21.72%	16.99%
CCCCCC[C@H]1C(=O)O[C@H](C)[C@H](NC(=O)c2cccc(NC=O)c2O)C(=O)O[C@@H](C)[C@@H]1OC(=O)CC(C)C [ANTIMYCIN A]		2200 nM		3820 nM	31.93%	28.62%
Cc1ccc(C)c(OCCCC(C)(C)C(=O)O)c1 [GEMFIBROZIL]	4070 nM		7080 nM		56.21%	71.16%
CC(=O)O[C@H]1CC[C@]2(C)C(C[C@@H](OC(C)=O)[C@]3(C)C4=CC(=O)O[C@H](c5ccoc5)[C@@]4(C)CCC23)C1(C)C (stereo partly drawn) [3-DEOXO-3beta-ACETOXYDEOXYDIHYDROGEDUNIN]		410 nM		2670 nM	14.97%	20.65%
CCCCCN(CCCCC)C(=O)C(CCC(=O)[O-])NC(=O)c1ccc(Cl)c(Cl)c1.[Na+] (stereo not given) [LORGLUMIDE SODIUM]		2010 nM		2710 nM	16.54%	32.85%
N[C@@H](C(=O)O)[C@@H](O)[C@H](O)[C@H](O)CO [GLUCOSAMINIC ACID]	11700 nM				63.53%	25.61%
CC(=O)O[C@@H]1CC2C(C)(C)[C@H](O)C[C@H](O)[C@@]2(C)C2CC[C@]3(C)C(=CC(=O)O[C@@H]3c3ccoc3)[C@]21C (stereo not given in full) [1,3-DIDEACETYLDEOXYKHIVORIN]		2960 nM		6590 nM	31.1%	50.83%
CC[C@H]1/C=C/C=C/C[C@@H](C)[C@H](O)[C@@](C)(O)C(=O)[C@@H](C)[C@H](O)[C@@H](C)C(=O)[C@@H](C)[C@H](O)[C@@H](C)/C=C/C(=O)O[C@@H]2[C@H](C)[C@H](CC1)O[C@]1(CC[C@H](C)[C@H](C[C@@H](C)O)O1)[C@H]2C [OLIGOMYCIN]		250 nM		440 nM	11.28%	3.002%
CC[C@H]1OC(=O)[C@H](C)C(=O)[C@H](C)[C@@H](O[C@@H]2O[C@H](C)C[C@H](N(C)C)[C@H]2O)[C@](C)(OC)C[C@@H](C)C(=O)[C@H](C)[C@H]2N(CCCCn3cnc(-c4cccnc4)c3)C(=O)O[C@]12C [TELITHROMYCIN]	3470 nM		5890 nM		62.01%	60.1%
CC1(C)C(=O)[C@@H]2O[C@@H]2[C@]2(C)[C@H]3CC[C@@]4(C)[C@H](c5ccoc5)OC(=O)[C@H]5O[C@]54[C@]3(C)[C@H](O)C[C@@H]12	1580 nM		2950 nM		12.73%	21.3%
CC(=O)O[C@@H]1C[C@H]2C(C)(C)[C@@H](O)CC[C@]2(C)[C@H]2CC[C@]3(C)C(=CC(=O)O[C@H]3c3ccoc3)[C@@]21C		930 nM and 1490 nM		2500 nM and 2390 nM	31.46%	25.89%
C=C1[C@@H]2CC[C@@]3(C)[C@H](c4ccoc4)OC(=O)C[C@]13O[C@H]1C[C@H](O)C(C)(C)[C@H](CC(=O)OC)[C@]12C		680 nM		3060 nM	16%	17.5%
CC(=O)O[C@@H]1C[C@H]2C(C)(C)[C@@H](O)CC[C@]2(C)[C@H]2CC[C@@]3(C)[C@H](c4ccoc4)OC(=O)[C@H]4O[C@]43[C@@]21C [beta-DIHYDROGEDUNOL]	1700 nM		3240 nM		20.54%	23.84%
CC[C@H]1OC(=O)[C@H](C)[C@@H](O[C@H]2C[C@@](C)(OC)[C@@H](O)[C@H](C)O2)[C@H](C)[C@@H](O[C@@H]2O[C@H](C)C[C@H](N(C)C)[C@H]2O)[C@](C)(OC)C[C@@H](C)C(=O)[C@H](C)[C@@H](O)[C@]1(C)O [CLARITHROMYCIN]	3090 nM		3310 nM		56.72%	80.47%
CC(N)C(=O)NC(Cc1ccccc1)C(=O)O (racemic) [ALANYL-dl-PHENYLALANINE]					90.94%	75.84%
COc1ccc(Cc2nccc3cc(OC)c(OC)cc23)cc1OC.Cl [PAPAVERINE HYDROCHLORIDE]					266.9%	113.7%
COc1ccc2c(c1)[C@@]1(C)CC[C@@H](O)C[C@@H]1CC2 [12-METHOXY-4,4-BISNOR-5alpha-8,11,13-PODOCARPATRIEN-3-OL]					95.25%	91.61%
